# Reference: ChEMBL document CHEMBL1138435, “A novel antibacterial iridoid and triterpene from Caiophora coronata” (2003)
# Activity calls are given as the source filed them. The calls are words filed in the database; no cut-off is given here.
# Columns and labels:
# Staphylococcus aureus [1] = experiment: Antimicrobial activity against methicillin-sensitive Staphylococcus aureus 375 after 18 hrs by twofold serial microbroth dilution method; type: functional; conditions: Staphylococcus aureus, 375, 18 h
# Staphylococcus aureus [2] = experiment: Antimicrobial activity against methicillin-resistant Staphylococcus aureus 310 after 18 hrs by twofold serial microbroth dilution method; type: functional; conditions: Staphylococcus aureus, 310, 18 h
# Bacillus subtilis = experiment: Antimicrobial activity against Bacillus subtilis 327 after 18 hrs by twofold serial microbroth dilution method; type: functional; conditions: Bacillus subtilis, 327, 18 h
# Enterococcus faecium = experiment: Antimicrobial activity against vancomycin-resistant Enterococcus faecium 379 after 18 hrs by twofold serial microbroth dilution method; type: functional; conditions: Enterococcus faecium, 379, 18 h
# Escherichia coli [3] = experiment: Antimicrobial activity against Escherichia coli 389 after 18 hrs by twofold serial microbroth dilution method; type: functional; conditions: Escherichia coli, 389, 18 h
# Candida albicans = experiment: Antimicrobial activity against Candida albicans 54 after 18 hrs by agar diffusion method; type: functional
# Escherichia coli [4] = experiment: Antimicrobial activity against Escherichia coli 442 after 18 hrs by agar diffusion method; type: functional, organism-based
# Escherichia coli [5] = experiment: Antimicrobial activity against Escherichia coli 442 after 18 hrs by twofold serial microbroth dilution method; type: functional; conditions: Escherichia coli, 442, 18 h
SMILES,MIC (Staphylococcus aureus [1]),MIC (Staphylococcus aureus [2]),MIC (Bacillus subtilis),MIC (Enterococcus faecium),MIC (Escherichia coli [3]),inhibition zone (IZ) (Candida albicans),inhibition zone (IZ) (Escherichia coli [4]),MIC (Escherichia coli [5]),"MIC (Candida albicans; Candida albicans, 54, 18 h)"
C[C@H]1[C@H](C)CC[C@]2(C)CC[C@]3(C(=O)O)C(=CC[C@@H]4[C@@]5(C)[C@H](O)C[C@H](O)C(C)(C)[C@@H]5CC[C@]43C)[C@H]12,4 µg/mL,4 µg/mL,2 µg/mL,4 µg/mL,16 µg/mL,inactive,inactive,,
CO[C@H]1OC(=O)[C@H](C)[C@@H]2[C@@H]1[C@@H](CO)C[C@@H]2O [CAIOPHORAENIN],> 128 µg/mL,> 128 µg/mL,> 128 µg/mL,> 128 µg/mL,> 128 µg/mL,inactive,inactive,> 128 µg/mL,
C[C@@H]1[C@@H]2COC(=O)C[C@H]2C[C@@H]1O [ISOBOONEIN],> 128 µg/mL,> 128 µg/mL,> 128 µg/mL,> 128 µg/mL,> 128 µg/mL,inactive,inactive,> 128 µg/mL,
CC1(C)S[C@@H]2[C@H](NC(=O)Cc3ccccc3)C(=O)N2[C@H]1C(=O)O [PENICILLIN G],0.06 µg/mL,128 µg/mL,32 µg/mL,32 µg/mL,4 µg/mL,,,,> 128 µg/mL
